What was measured:
CDC7/DBF4 = CDC7/DBF4 (Homo sapiens, UniProt O00311); conditions: 1 μM; Run 1, Run 2
CDK4/cyclin D3 = CDK4/cyclin D3 (Homo sapiens, UniProt P11802); conditions: 1 μM; Run 1, Run 2
DYRK1B = DYRK1B (Homo sapiens, UniProt Q9Y463); conditions: 1 μM; Run 1, Run 2
FGFR1 = FGFR1 (Homo sapiens, UniProt P11362); conditions: 1 μM; Run 1, Run 2
MLCK/MYLK = MLCK/MYLK (Homo sapiens, UniProt Q15746); conditions: 1 μM; Run 1, Run 2
PLK2 = PLK2 (Homo sapiens, UniProt Q9NYY3); conditions: 1 μM; Run 1, Run 2
ULK1 = biological target: T1, ULK1 (Homo sapiens, UniProt O75385); conditions: 1 μM; Run 1, Run 2
T1 sequence (O75385 1-1050): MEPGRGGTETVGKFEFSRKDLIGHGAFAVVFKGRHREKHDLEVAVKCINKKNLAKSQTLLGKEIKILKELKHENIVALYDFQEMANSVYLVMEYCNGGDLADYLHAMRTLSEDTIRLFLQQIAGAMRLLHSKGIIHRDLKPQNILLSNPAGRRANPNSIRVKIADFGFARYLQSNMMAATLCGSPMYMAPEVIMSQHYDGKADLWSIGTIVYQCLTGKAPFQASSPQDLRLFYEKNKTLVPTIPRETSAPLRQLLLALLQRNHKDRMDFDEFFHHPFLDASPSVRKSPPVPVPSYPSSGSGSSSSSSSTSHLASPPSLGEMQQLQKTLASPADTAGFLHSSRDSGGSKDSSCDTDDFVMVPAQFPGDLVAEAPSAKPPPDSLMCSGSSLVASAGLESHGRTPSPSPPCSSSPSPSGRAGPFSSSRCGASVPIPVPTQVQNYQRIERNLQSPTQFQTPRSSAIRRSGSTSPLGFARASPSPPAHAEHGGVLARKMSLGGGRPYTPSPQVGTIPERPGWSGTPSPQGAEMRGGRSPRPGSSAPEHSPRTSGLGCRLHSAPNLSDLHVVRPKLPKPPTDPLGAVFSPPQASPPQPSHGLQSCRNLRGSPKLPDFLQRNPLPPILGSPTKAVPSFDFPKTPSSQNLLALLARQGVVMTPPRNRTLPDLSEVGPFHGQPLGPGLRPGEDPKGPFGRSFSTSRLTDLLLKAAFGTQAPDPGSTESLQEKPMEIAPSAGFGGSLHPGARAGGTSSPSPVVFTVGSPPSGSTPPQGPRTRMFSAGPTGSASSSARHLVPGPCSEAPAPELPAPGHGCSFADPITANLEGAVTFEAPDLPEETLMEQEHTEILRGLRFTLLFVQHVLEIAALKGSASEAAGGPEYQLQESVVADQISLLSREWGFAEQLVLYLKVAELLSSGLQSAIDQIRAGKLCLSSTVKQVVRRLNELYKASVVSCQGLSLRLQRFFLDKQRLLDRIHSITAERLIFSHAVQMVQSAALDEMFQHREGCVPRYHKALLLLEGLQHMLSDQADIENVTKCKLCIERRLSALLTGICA

CDK19/cyclin C = CDK19/cyclin C (Homo sapiens, UniProt Q9BWU1); assay: biochemical; conditions: read-out: % enzyme activity, 1 μM; Run 1, Run 2
FLT4/VEGFR3 = FLT4/VEGFR3 (Homo sapiens, UniProt P35916); assay: biochemical; conditions: read-out: % enzyme activity, 1 μM; Run 1, Run 2
FYN = FYN (Homo sapiens, UniProt P06241); assay: biochemical; conditions: read-out: % enzyme activity, 1 μM; Run 1, Run 2
KSR1 = biological target: T2, KSR1 (Homo sapiens, UniProt Q8IVT5); assay: biochemical; conditions: read-out: % enzyme activity, 1 μM; Run 1, Run 2
T2 sequence (Q8IVT5 1-923): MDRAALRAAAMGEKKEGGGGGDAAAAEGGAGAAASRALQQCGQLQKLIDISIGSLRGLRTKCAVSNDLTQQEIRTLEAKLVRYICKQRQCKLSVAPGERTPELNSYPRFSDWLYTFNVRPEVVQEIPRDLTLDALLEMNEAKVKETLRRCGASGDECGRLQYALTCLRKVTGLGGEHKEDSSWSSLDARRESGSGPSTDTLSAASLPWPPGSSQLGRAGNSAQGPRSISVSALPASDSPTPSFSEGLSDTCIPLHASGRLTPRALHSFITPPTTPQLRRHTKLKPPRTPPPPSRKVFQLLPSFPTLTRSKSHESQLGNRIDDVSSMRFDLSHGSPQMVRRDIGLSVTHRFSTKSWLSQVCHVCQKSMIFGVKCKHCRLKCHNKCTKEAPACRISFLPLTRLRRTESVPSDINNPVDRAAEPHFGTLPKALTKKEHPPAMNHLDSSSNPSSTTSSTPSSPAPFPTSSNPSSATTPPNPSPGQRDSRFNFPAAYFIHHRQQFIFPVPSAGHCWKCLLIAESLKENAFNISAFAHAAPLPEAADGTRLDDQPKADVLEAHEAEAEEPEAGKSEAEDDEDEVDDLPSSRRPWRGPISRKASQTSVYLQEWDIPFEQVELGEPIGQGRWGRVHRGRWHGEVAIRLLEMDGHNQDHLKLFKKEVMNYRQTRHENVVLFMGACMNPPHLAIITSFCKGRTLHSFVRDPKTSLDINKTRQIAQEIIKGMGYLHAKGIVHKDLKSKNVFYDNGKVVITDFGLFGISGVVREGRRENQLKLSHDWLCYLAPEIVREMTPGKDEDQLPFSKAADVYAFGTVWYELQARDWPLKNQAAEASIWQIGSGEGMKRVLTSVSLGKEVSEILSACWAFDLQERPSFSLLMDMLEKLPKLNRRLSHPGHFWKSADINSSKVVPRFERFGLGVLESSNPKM

SBK1 = SBK1 (Homo sapiens, UniProt Q52WX2); assay: biochemical; conditions: read-out: % enzyme activity, 1 μM; Run 1, Run 2
Sequence of SBK1 (Q52WX2 whole entry): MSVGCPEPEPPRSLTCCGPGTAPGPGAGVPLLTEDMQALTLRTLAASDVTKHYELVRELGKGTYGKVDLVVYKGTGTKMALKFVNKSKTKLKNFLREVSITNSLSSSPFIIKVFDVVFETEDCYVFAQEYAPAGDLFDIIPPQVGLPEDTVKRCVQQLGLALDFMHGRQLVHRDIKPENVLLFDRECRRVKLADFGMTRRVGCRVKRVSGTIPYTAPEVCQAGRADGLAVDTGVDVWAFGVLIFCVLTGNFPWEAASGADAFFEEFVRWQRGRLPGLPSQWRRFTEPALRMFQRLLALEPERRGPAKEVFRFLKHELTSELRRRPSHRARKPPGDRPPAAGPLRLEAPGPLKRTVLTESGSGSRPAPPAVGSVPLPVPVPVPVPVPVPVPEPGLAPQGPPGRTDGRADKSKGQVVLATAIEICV

Sequence of CDK19/cyclin C (Q9BWU1 whole entry): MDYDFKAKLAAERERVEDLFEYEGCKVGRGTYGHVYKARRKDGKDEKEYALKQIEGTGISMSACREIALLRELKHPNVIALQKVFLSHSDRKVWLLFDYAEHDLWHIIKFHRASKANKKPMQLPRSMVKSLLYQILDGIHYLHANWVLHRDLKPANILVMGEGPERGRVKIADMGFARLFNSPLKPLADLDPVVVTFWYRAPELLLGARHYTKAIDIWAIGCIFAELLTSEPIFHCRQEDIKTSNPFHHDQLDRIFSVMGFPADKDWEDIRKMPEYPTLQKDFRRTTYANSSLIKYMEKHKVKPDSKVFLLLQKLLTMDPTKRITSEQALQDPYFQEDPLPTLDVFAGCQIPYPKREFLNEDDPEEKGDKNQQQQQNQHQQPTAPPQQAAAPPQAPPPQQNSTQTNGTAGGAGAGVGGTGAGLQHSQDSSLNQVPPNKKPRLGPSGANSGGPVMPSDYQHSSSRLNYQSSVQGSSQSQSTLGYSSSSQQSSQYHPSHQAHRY
Sequence of CDK19/cyclin C (P24863 whole entry partner): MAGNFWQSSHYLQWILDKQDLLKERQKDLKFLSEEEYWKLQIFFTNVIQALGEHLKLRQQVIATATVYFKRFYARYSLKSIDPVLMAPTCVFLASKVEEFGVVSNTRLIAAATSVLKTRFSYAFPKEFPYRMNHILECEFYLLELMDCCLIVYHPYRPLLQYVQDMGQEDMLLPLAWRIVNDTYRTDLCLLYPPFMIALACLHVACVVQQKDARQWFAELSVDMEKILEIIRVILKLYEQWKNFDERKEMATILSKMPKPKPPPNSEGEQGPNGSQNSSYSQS
Sequence of MLCK/MYLK (Q15746 whole entry): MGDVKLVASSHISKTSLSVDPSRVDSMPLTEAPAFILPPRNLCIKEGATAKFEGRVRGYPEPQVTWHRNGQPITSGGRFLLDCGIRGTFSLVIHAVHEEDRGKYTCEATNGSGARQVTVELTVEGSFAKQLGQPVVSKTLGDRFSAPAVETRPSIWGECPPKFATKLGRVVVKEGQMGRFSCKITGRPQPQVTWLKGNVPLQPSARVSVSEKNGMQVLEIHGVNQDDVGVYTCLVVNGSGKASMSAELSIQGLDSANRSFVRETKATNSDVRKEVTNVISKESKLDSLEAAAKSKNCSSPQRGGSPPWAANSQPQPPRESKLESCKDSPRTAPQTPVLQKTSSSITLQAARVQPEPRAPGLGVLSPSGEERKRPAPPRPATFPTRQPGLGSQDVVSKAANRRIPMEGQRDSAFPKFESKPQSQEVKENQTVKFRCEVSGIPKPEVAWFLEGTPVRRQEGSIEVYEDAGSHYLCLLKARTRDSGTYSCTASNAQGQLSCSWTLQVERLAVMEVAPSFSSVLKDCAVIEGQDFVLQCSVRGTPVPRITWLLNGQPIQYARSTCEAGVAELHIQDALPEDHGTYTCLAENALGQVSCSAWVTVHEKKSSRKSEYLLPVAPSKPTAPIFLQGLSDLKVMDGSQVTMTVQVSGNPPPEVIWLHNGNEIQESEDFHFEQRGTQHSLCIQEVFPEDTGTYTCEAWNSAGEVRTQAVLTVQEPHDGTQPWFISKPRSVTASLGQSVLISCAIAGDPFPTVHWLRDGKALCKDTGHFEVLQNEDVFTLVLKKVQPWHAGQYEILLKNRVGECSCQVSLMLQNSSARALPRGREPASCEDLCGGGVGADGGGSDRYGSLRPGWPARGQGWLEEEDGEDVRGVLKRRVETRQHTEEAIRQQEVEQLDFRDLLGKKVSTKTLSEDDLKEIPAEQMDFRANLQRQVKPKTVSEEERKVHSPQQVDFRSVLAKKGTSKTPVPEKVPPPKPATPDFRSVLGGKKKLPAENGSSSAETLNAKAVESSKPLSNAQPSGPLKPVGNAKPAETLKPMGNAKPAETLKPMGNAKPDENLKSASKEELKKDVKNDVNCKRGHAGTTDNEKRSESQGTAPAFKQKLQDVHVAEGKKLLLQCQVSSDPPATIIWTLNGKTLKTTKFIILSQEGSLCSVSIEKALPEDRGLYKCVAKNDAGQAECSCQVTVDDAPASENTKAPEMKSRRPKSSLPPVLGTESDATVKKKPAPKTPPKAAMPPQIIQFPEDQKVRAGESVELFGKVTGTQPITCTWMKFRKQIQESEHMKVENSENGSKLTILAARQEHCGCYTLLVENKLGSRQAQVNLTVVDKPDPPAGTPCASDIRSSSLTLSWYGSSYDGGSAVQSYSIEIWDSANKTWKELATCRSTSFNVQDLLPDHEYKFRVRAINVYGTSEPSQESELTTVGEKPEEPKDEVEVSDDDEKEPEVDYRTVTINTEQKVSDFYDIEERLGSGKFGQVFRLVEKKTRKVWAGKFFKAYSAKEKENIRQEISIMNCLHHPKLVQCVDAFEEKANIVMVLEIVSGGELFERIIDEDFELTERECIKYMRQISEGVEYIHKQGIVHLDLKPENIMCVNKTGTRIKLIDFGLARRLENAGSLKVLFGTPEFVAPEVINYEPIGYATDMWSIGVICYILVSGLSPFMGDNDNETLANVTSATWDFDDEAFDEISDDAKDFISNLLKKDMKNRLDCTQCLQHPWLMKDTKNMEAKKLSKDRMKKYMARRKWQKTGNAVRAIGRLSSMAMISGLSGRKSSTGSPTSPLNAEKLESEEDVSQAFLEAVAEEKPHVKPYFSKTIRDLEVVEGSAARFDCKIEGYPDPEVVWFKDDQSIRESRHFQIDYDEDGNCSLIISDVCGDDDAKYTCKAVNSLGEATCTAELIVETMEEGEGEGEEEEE
Sequence of FYN (P06241 whole entry): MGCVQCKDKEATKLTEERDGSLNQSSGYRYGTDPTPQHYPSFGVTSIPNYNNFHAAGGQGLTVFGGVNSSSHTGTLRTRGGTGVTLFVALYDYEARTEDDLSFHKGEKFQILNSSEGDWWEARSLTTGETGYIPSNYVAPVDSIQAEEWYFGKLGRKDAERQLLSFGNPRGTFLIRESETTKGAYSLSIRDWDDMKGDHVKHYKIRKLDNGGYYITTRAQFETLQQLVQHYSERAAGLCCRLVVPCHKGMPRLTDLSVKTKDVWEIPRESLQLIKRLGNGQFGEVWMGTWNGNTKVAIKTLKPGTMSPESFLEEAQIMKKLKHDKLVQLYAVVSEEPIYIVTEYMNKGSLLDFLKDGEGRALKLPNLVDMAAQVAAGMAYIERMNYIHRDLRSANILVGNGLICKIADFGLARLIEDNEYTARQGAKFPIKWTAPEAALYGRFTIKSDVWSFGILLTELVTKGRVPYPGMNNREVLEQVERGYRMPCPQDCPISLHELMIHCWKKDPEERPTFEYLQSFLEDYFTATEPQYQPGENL
Sequence of CDK4/cyclin D3 (P11802 whole entry): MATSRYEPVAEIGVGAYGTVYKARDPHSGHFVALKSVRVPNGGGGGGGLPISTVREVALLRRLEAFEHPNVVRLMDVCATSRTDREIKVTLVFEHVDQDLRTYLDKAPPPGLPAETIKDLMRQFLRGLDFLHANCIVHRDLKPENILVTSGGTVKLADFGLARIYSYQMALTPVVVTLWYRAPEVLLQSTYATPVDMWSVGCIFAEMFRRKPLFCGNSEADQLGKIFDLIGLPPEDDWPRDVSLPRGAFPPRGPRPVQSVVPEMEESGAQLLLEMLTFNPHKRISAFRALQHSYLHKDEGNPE
Sequence of CDK4/cyclin D3 (P30281 whole entry partner): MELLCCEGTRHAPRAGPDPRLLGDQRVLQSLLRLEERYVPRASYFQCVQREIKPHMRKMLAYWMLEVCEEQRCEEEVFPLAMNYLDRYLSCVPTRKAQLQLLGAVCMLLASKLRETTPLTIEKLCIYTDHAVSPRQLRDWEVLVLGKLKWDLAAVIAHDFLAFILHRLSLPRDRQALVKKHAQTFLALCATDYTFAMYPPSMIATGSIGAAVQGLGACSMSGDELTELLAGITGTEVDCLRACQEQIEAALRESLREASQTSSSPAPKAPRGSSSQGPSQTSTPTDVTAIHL
Sequence of PLK2 (Q9NYY3 whole entry): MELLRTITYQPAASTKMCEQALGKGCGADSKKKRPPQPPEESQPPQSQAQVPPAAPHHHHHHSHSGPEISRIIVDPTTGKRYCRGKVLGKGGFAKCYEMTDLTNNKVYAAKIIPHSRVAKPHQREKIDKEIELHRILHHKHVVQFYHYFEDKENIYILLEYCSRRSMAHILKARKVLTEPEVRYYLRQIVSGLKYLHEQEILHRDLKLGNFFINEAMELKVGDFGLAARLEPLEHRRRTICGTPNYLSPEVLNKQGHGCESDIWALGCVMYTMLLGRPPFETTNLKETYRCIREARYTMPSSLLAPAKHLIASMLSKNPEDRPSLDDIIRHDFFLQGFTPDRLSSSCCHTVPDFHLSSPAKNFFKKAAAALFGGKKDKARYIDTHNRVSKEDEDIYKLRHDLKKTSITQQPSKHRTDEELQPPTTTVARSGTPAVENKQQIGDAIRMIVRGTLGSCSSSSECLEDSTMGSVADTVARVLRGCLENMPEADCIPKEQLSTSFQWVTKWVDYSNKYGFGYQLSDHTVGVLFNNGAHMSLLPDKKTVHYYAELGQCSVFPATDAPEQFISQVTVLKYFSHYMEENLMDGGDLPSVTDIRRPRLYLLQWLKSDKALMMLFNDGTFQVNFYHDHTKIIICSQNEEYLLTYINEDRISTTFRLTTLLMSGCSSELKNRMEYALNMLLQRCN

Structure (SMILES)	% enzyme activity (CDC7/DBF4) [%]	% enzyme activity (CDK4/cyclin D3) [%]	% enzyme activity (DYRK1B) [%]	% enzyme activity (FGFR1) [%]	% enzyme activity (MLCK/MYLK) [%]	% enzyme activity (PLK2) [%]	% enzyme activity (ULK1) [%]	remaining activity at 1 µM (CDK19/cyclin C) [%]	remaining activity at 1 µM (FLT4/VEGFR3) [%]	remaining activity at 1 µM (FYN) [%]	remaining activity at 1 µM (KSR1) [%]	remaining activity at 1 µM (SBK1) [%]
COc1cc(-c2cncc(-c3ccc(N4CCN(C)CC4)cc3)c2C)cc(F)c1C(N)=O [Compound 26a, 2-Fluoro-6-methoxy-4-(4-methyl-5-(4-(4-methylpiperazin-1-yl)phenyl)pyridin-3-yl)benzamide]	91.84	96.96	39.80	96.52	106.15	97.24	83.53	79.1	98.4	99.9	94.5	94.6
COc1cc(-c2cncc(-c3ccc(N4C[C@@H](C)N(C)[C@@H](C)C4)cc3)c2C)cc(F)c1C(N)=O [Compound 26c, 2-Fluoro-6-methoxy-4-(4-methyl-5-(4-((3R,5S)-3,4,5-trimethylpiperazin-1-yl)phenyl)pyridin-3-yl)benzamide]	93.55	95.54	58.52	99.91	101.49	102.38	89.24	87.1	97.1	97	96.3	103

Reference: article PMC8213057, “Targeting ALK2: An Open Science Approach to Developing Therapeutics for the Treatment of Diffuse Intrinsic Pontine Glioma” (Journal of Medicinal Chemistry, 2020)
